Reference: US12557829B2, “Liquid-phase, supplementary feed composition containing coenzyme Q10” (priority 2021, dated 2026)
Like-named read-outs stand apart in the source and are kept apart here.

Test: Single intravenous administration, plasma concentration of coenzyme Q10
Format: in vivo
Conditions: rat, 6 mg/kg, rats
Description: The supplementary feed composition containing coenzyme Q10 was orally administered to rats for 5 consecutive days, and systemic absorption was examined after oral administration on the 5th day. In addition, a single intravenous injection test was performed to evaluate the absorption rate (bioavailability).
Single Intravenous Administration Experiment
Plasma concentration measurement after intravenous coenzyme Q10 administration: dose (6 mg/kg), measured up to 6 hours
Plasma Collection after Intravenous Administration
After lightly anesthetizing the rats with ether, a polyethylene tube (PE-50, Intramedic, Clay Adams, USA) was intubated into the left femoral artery and vein. After the rats recovered from anesthesia, coenzyme Q10 was intravenously administered (6 mg/kg), and blood was collected from the left femoral artery at 0 (blank), 1, 5, 10, 15, 30, 60, 90, 120 and 180 minutes. 250 μl of blood was received in a microtube, and 100 μl of plasma obtained after centrifugation was used for quantification.
Quantification of the Concentration of Coenzyme Q10 in Plasma
For coenzyme Q10, a calibration curve was prepared in which a good linear relationship (R=0.999) was established in the concentration range of 0.05 μg/mL to 10 μg/mL. […] 100 μL of this was taken and quantified by the HPLC assay described above.

COC1=C(OC)C(=O)C(C/C=C(\C)CC/C=C(\C)CC/C=C(\C)CC/C=C(\C)CC/C=C(\C)CC/C=C(\C)CC/C=C(\C)CC/C=C(\C)CC/C=C(\C)CCC=C(C)C)=C(C)C1=O [coenzyme Q10, 2,3-dimethoxy-5-methyl-6-decaprenyl-1,4-benzoquinone]
half-life (read-out: half-life (t1/2,α) in the pre-distribution phase (α phase)): 3.3 min
half-life (read-out: half-life (t1/2,β) in the post-distribution phase (β phase)): 52 min
